Measured values reported in ChEMBL document CHEMBL4819019, “Design, synthesis, antibacterial activity and toxicity of novel quaternary ammonium compounds based on pyridoxine and fatty acids” (Eur J Med Chem, 2021).
Calls of active or inactive are those of the source. The rule behind the calls is not given here.

How the values were obtained:
[1] = Genotoxicity in Salmonella typhimurium TA1535/pSK1002 assessed as DNA-damage activity by measuring beta-galactosidase activity at 750 ug/ml measured by SOS-chromotest relative to solvent control; type: toxicity; conditions: salmonella enterica subsp. enterica serovar typhimurium; dose 750 µg/ml
[2] = system: Pseudomonas aeruginosa; assay: Antibiofilm activity against biofilm-embedded Pseudomonas aeruginosa assessed as reduction in log CFU at 1 to 32 times of MBC measured after 24 hrs by drop plate assay; type: functional, organism-based
[3] = system: Staphylococcus aureus; assay: Antibacterial activity against clinical isolate methicillin-resistant Staphylococcus aureus 1053 measured after 24 hrs by broth microdilution method; type: functional
[4] = system: Staphylococcus ureilyticus; assay: Antibacterial activity against clinical isolate Staphylococcus ureilyticus 1972 measured after 24 hrs by broth microdilution method; type: functional
[5] = system: Pseudomonas aeruginosa; assay: Antibacterial activity against Pseudomonas aeruginosa ATCC 27853 measured after 24 hrs by broth microdilution method; type: functional
[6] = Genotoxicity in Salmonella typhimurium TA1535/pSK1002 assessed as DNA-damage activity by measuring beta-galactosidase activity at 150 ug/ml measured by SOS-chromotest relative to solvent control; type: toxicity; conditions: salmonella enterica subsp. enterica serovar typhimurium; dose 150 µg/ml
[7] = system: Staphylococcus aureus; assay: Antibacterial activity against Staphylococcus aureus assessed as fold increase in MIC after 8 passages by serial dilution method; type: functional, organism-based; conditions: time 24.0 hrs
[8] = system: Pseudomonas aeruginosa; assay: Antibacterial activity against clinical isolate Pseudomonas aeruginosa 1945 measured after 24 hrs by broth microdilution method; type: functional
[9] = Genotoxicity in Salmonella typhimurium TA1535/pSK1002 assessed as DNA-damage activity by measuring beta-galactosidase activity at 75 ug/ml measured by SOS-chromotest relative to solvent control; type: toxicity; conditions: salmonella enterica subsp. enterica serovar typhimurium; dose 75 µg/ml
[10] = system: Enterococcus faecalis; assay: Antibacterial activity against clinical isolate Enterococcus faecalis 23 measured after 24 hrs by broth microdilution method; type: functional
[11] = system: Acinetobacter sp.; assay: Antibacterial activity against clinical isolate Acinetobacter sp. 3 measured after 24 hrs by broth microdilution method; type: functional
[12] = Acute toxicity in C57BL/6CBA mouse assessed as necropsy measured at 2500 mg/kg treated as single topically measured after 14 days; type: organism-based; conditions: in vivo, topical_or_ocular, 336 h, time 14 day
[13] = system: Pseudomonas sp.; assay: Antibacterial activity against clinical isolate Pseudomonas sp. 5 measured after 24 hrs by broth microdilution method; type: functional
[14] = Genotoxicity in Salmonella typhimurium TA100 assessed as number of revertant by Ames spot test relative to solvent control; type: toxicity; conditions: salmonella enterica subsp. enterica serovar typhimurium
[15] = system: Escherichia coli; assay: Antibacterial activity against Escherichia coli MG 1655 measured after 24 hrs by broth microdilution method; type: functional
[16] = system: Serratia marcescens; assay: Antibacterial activity against clinical isolate Serratia marcescens 1966 measured after 24 hrs by broth microdilution method; type: functional
[17] = Acute toxicity in C57BL/6CBA mouse assessed as pale kidneys at 2000 mg/kg, po after 7 days; type: organism-based; conditions: in vivo, 168 h, time 7 day
[18] = Antibiofilm activity against biofilm-embedded Staphylococcus aureus/Escherichia coli assessed as reduction in viable cells upto 512 mg/L measured after 24 hrs by drop plate based dual species biofilm assay; type: functional, cell-based; conditions: dose mg/L <=512, time 24.0 hrs
[19] = system: Staphylococcus aureus; assay: Antibacterial activity against clinical isolate Staphylococcus aureus 25 measured after 24 hrs by broth microdilution method; type: functional
[20] = system: Escherichia coli; assay: Antibiofilm activity against biofilm-embedded Escherichia coli assessed as reduction in log CFU at 1 to 32 times of MBC measured after 24 hrs by drop plate assay; type: functional, organism-based
[21] = Acute toxicity in topically treated C57BL/6CBA mouse assessed as death measured at 2500 mg/kg treated as single topically measured after 14 days; type: organism-based; conditions: in vivo, topical_or_ocular, 336 h, time 14 day
[22] = Acute toxicity in topically treated C57BL/6CBA mouse measured upto 14 days; conditions: in vivo, topical or ocular, time <=14 day
[23] = Cytotoxicity against human mesenchymal stem cells assessed as cell viability measured after 72 hrs by MTT assay; type: cell-based
[24] = Antibiofilm activity against biofilm-embedded Staphylococcus aureus/Pseudomonas aeruginosa assessed as reduction in viable cells upto 512 mg/L measured after 24 hrs by drop plate based dual species biofilm assay; type: functional, cell-based; conditions: dose mg/L <=512, time 24.0 hrs
[25] = Genotoxicity in Salmonella typhimurium TA1537 assessed as number of revertant by Ames spot test relative to solvent control; type: toxicity; conditions: salmonella enterica subsp. enterica serovar typhimurium
[26] = system: Micrococcus luteus; assay: Antibacterial activity against Micrococcus luteus clinical isolate measured after 24 hrs by broth microdilution method; type: functional
[27] = system: Staphylococcus aureus; assay: Antibacterial activity against Staphylococcus aureus ATCC 29213 measured after 24 hrs by broth microdilution method; type: functional
[28] = Genotoxicity in Salmonella typhimurium TA1535/pSK1002 assessed as DNA-damage activity by measuring beta-galactosidase activity at 7.5 ug/ml measured by SOS-chromotest relative to solvent control; type: toxicity; conditions: salmonella enterica subsp. enterica serovar typhimurium; dose 7.5 µg/ml
[29] = system: Escherichia coli; assay: Antibacterial activity against Escherichia coli assessed as fold increase in MIC after 4 passages by serial dilution method; type: functional, organism-based; conditions: time 24.0 hrs
[30] = Genotoxicity in Salmonella typhimurium TA98 assessed as number of revertant by Ames spot test relative to solvent control; type: toxicity; conditions: salmonella enterica subsp. enterica serovar typhimurium
[31] = system: Staphylococcus aureus; assay: Antibacterial activity against clinical isolate methicillin-resistant Staphylococcus aureus 713 measured after 24 hrs by broth microdilution method; type: functional
[32] = Cytotoxicity against human HEK293 cells assessed as cell viability measured after 72 hrs by MTT assay; type: cell-based
[33] = Genotoxicity in Salmonella typhimurium TA1535 assessed as number of revertant by Ames spot test relative to solvent control; type: toxicity; conditions: salmonella enterica subsp. enterica serovar typhimurium
[34] = Lipophilicity, logP of the compound; type: physicochemical; conditions: octanol/water
[35] = Genotoxicity in Salmonella typhimurium TA1535/pSK1002 assessed as DNA-damage activity by measuring beta-galactosidase activity at 15 ug/ml measured by SOS-chromotest relative to solvent control; type: toxicity; conditions: salmonella enterica subsp. enterica serovar typhimurium; dose 15 µg/ml
[36] = system: Cell membrane; assay: Induction of cell membrane damage in Escherichia coli assessed as decrease in flourescence measured for 35 mins with 5 min interval by DioC2(3) based flourescence method
[37] = system: Proteus sp.; assay: Antibacterial activity against clinical isolate Proteus sp. 17 measured after 24 hrs by broth microdilution method; type: functional; conditions: Proteus sp. (in: enterobacteria)
[38] = system: Staphylococcus aureus; assay: Antibacterial activity against clinical isolate methicillin-resistant Staphylococcus aureus 1131 measured after 24 hrs by broth microdilution method; type: functional
[39] = system: Cell membrane; assay: Induction of cell membrane damage in Staphylococcus aureus assessed as decrease in flourescence measured for 35 mins with 5 min interval by DioC2(3) based flourescence method
[40] = system: Enterococcus faecalis; assay: Antibacterial activity against clinical isolate Enterococcus faecalis 3063 measured after 24 hrs by broth microdilution method; type: functional
[41] = Acute toxicity in C57BL/6CBA mouse assessed pale gastric mucosa at 2000 mg/kg, po after 7 days; type: organism-based; conditions: in vivo, 168 h, time 7 day
[42] = system: Moraxella; assay: Antibacterial activity against clinical isolate Moraxella 765 measured after 24 hrs by broth microdilution method; type: functional
[43] = system: Micrococcus luteus; assay: Antibiofilm activity against biofilm-embedded Micrococcus luteus assessed as reduction in log CFU at 1 to 32 times of MBC measured after 24 hrs by drop plate assay; type: functional, organism-based
[44] = Cytotoxicity against human skin fibroblasts assessed as cell viability measured after 72 hrs by MTT assay; type: cell-based, Fibroblast
[45] = system: Staphylococcus intermedius; assay: Antibacterial activity against clinical isolate methicillin-resistant Staphylococcus intermedius 1061 measured after 24 hrs by broth microdilution method; type: functional
[46] = system: Staphylococcus aureus; assay: Antibiofilm activity against biofilm-embedded Staphylococcus aureus assessed as reduction in log CFU at 1 to 32 times of MBC measured after 24 hrs by drop plate assay; type: functional, organism-based
[47] = system: Klebsiella sp.; assay: Antibacterial activity against clinical isolate Klebsiella sp. 11 measured after 24 hrs by broth microdilution method; type: functional
[48] = system: Staphylococcus aureus; assay: Antibacterial activity against clinical isolate methicillin-resistant Staphylococcus aureus 983 measured after 24 hrs by broth microdilution method; type: functional
[49] = system: Staphylococcus aureus; assay: Antibacterial activity against clinical isolate methicillin-resistant Staphylococcus aureus 1065 measured after 24 hrs by broth microdilution method; type: functional
[50] = system: Escherichia coli; assay: Antibacterial activity against clinical isolate Escherichia coli 718 measured after 24 hrs by broth microdilution method; type: functional
[51] = system: Staphylococcus intermedius; assay: Antibacterial activity against clinical isolate methicillin-resistant Staphylococcus intermedius 1143 measured after 24 hrs by broth microdilution method; type: functional
[52] = Acute toxicity in po dosed C57BL/6CBA mouse measured upto 7 days; type: organism-based; conditions: in vivo, time <=7 day
[53] = system: Klebsiella pneumoniae; assay: Antibacterial activity against clinical isolate Klebsiella pneumoniae 1813 measured after 24 hrs by broth microdilution method; type: functional
[54] = system: Bacillus subtilis; assay: Antibacterial activity against Bacillus subtilis 168 measured after 24 hrs by broth microdilution method; type: functional

With CCCCCCCCCCCCCC(=O)NCC[N+](C)(C)Cc1nc(C)c2c(c1CO)COC(C)(C)O2.[Cl-] the Ratio [1] was 0.4, the Activity [2] was “Active” and the MIC [3] was 4 µg/mL. For the same molecule, the MIC [4] was > 64 µg/mL, the MIC [5] was > 64 µg/mL and the Ratio [6] was 0.7. The MIC [7] was “Active”, the MIC [8] was 32 µg/mL and the Ratio [9] was 0.7. For the same molecule, the MIC [10] was 1 µg/mL, the MIC [11] was 32 µg/mL and the Activity [12] was “Non-Toxic”. The MIC [13] was 32 µg/mL, the Ratio [14] was 1.7 and the MIC [15] was 8 µg/mL. The MIC [16] was > 64 µg/mL, the Activity [17] was “Toxic” and the Activity [18] was “inactive”. The MIC [19] was 2 µg/mL, the Activity [20] was “Active” and the Activity [21] was “Non-Toxic”. The LD50 at 336 h [22] was > 2500 mg/kg, the CC50 at 72 h [23] was 1.74 µg/mL and the Activity [24] was “inactive”. It also gave a Ratio [25] of 0.01, an MIC [26] of 2 µg/mL and an MIC [27] of 1 µg/mL. For the same molecule, the Ratio [28] was 1.6, the MIC [29] was “Active” and the Ratio [30] was 1.9. The MIC [31] was 4 µg/mL, the CC50 at 72 h [32] was 1.32 µg/mL and the Ratio [33] was 1.1. For the same molecule, the logP [34] was 0.73, the Ratio [35] was 1.8 and the Activity [36] was “Dose-Dependent Effect”. For the same molecule, the MIC [37] was > 64 µg/mL, the MIC [38] was 4 µg/mL and the Activity [39] was “Dose-Dependent Effect”. The MIC [40] was 1 µg/mL, the Activity [41] was “Toxic” and the MIC [42] was 64 µg/mL. For the same molecule, the Activity [43] was “Active”, the CC50 at 72 h [44] was 3.21 µg/mL and the MIC [45] was 4 µg/mL. The Activity [46] was “Active”, the MIC [47] was 32 µg/mL and the MIC [48] was 32 µg/mL. It also gave an MIC [49] of 2 µg/mL, an MIC [50] of 16 µg/mL and an MIC [51] of 4 µg/mL. The LD50 at 168 h [52] was > 2000 mg/kg, the MIC [53] was 2 µg/mL and the MIC [54] was 1 µg/mL.
